# From US20260183275A1, “SUBSTITUTED QUINOLONE COMPOUNDS USEFUL AS INHIBITORS OF TLR9” (Bristol-Myers Squibb Company, priority 2022, published 2026)
# Columns and labels:
# Format in all cases: cell-based
# human TLR7 = target: T1, human TLR7 (Homo sapiens, UniProt Q9NYK1); test: TLR7 inhibition reporter assay (HEK-Blue cells, SEAP reporter); conditions: HEK-Blue cells overexpressing human TLR7; stimulated with gardiquimod 7.5 μM; SEAP read after 22 hour; dose range 0.05 nM-50 μM
# T1 construct: host or cells: HEK-Blue cells
# T1 sequence (Q9NYK1 27-1049): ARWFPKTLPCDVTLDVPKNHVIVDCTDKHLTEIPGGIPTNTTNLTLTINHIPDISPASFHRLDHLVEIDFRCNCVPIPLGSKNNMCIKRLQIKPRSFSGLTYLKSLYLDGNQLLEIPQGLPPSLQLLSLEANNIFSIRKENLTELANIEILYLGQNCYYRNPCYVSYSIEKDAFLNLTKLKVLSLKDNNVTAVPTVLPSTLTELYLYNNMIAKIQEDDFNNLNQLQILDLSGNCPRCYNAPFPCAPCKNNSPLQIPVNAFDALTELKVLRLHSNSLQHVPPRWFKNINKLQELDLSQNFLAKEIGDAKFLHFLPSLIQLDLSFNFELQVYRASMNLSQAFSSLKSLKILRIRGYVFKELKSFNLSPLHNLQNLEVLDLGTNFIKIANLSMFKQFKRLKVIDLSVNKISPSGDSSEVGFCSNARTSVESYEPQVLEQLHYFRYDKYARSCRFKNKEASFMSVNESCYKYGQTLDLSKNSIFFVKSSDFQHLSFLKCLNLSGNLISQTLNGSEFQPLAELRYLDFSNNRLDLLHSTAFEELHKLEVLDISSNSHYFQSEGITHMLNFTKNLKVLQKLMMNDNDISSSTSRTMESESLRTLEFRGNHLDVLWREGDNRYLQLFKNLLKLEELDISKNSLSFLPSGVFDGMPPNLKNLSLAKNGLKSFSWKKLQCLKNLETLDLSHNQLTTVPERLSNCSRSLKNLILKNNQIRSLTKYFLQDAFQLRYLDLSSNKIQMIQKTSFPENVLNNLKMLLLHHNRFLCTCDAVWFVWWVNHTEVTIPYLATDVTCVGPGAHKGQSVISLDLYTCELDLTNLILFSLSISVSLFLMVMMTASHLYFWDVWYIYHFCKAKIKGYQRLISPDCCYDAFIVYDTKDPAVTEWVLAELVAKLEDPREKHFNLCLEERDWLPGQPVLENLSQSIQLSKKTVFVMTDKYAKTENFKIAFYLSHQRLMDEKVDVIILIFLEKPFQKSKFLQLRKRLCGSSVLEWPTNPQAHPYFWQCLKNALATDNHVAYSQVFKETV
# Method: (§1) HEK-Blue™-cells (Invivogen) overexpressing human TLR7, TLR8 or TLR9 receptors were used for screening inhibitors of these receptors using an inducible SEAP (secreted embryonic alkaline phosphatase) reporter gene under the control of the IFN-β minimal promoter fused to five NF-κB and AP-1-binding sites. Briefly, cells are seeded into Greiner 384 well plates (15000 cells per well for TLR7, 20,000 for TLR8 and 25,000 for TLR9) and then treated with test compounds in DMSO to yield a final dose response concentration range of 0.05 nM-50 μM. After a 30 minute compound pre-treatment at room temperature, the cells are then stimulated with a TLR7 ligand (gardiquimod at a final concentration of 7.5 μM), TLR8 ligand (R848 at a final concentration of 15.9 μM) or TLR9 ligand (ODN2006 at a final concentration of 5 nM) to activate NF-κB and AP-1 which induce the production of SEAP. After a 22 hour incubation at 37° C., 5% CO2, SEAP levels are determined with the addition of HEK-Blue™ Detection reagent (Invivogen), a cell culture medium that allows for detection of SEAP, according to manufacturer's specifications. The percent inhibition is determined as the % reduction in the HEK-Blue signal present in wells treated with agonist plus DMSO alone compared to wells treated with a known inhibitor.
# human TLR9 = target: T2, human TLR9 (Homo sapiens, UniProt Q9NR96); test: TLR9 inhibition reporter assay (HEK-Blue cells, SEAP reporter); conditions: HEK-Blue cells overexpressing human TLR9; stimulated with ODN2006 5 nM; SEAP read after 22 hour; dose range 0.05 nM-50 μM
# T2 construct: host or cells: HEK-Blue cells
# T2 sequence (Q9NR96 26-1032): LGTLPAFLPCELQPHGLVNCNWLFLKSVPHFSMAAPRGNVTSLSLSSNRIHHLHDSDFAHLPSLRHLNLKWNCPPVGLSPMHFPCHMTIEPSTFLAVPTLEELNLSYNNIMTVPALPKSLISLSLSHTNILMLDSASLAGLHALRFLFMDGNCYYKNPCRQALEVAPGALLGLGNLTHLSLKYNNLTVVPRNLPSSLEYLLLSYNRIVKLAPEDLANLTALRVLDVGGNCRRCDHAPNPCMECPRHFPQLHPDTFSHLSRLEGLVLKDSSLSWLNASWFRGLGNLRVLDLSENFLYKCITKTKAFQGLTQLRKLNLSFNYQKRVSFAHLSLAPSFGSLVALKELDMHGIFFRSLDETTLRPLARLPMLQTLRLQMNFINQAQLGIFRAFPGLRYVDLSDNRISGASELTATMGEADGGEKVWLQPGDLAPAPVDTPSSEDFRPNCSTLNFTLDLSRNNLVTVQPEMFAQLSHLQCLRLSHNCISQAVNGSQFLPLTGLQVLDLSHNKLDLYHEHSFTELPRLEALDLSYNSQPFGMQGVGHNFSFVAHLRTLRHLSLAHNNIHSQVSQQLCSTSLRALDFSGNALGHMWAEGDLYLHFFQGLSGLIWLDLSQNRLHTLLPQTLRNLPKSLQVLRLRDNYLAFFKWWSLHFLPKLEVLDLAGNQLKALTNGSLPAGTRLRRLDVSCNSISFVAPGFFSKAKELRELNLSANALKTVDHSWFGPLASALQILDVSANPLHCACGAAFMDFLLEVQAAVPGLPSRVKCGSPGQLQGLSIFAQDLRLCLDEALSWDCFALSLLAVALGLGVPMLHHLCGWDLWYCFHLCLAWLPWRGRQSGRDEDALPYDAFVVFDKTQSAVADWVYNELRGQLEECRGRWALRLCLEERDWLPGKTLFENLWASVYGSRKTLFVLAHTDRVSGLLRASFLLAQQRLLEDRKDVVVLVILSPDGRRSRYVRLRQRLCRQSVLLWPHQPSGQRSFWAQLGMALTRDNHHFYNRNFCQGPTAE
# Method: as §1
# human TLR8 = target: T3, human TLR8 (Homo sapiens, UniProt Q9NR97); test: TLR8 inhibition reporter assay (HEK-Blue cells, SEAP reporter); conditions: HEK-Blue cells overexpressing human TLR8; stimulated with R848 15.9 μM; SEAP read after 22 hour; dose range 0.05 nM-50 μM
# T3 construct: host or cells: HEK-Blue cells
# T3 sequence (Q9NR97 27-1041): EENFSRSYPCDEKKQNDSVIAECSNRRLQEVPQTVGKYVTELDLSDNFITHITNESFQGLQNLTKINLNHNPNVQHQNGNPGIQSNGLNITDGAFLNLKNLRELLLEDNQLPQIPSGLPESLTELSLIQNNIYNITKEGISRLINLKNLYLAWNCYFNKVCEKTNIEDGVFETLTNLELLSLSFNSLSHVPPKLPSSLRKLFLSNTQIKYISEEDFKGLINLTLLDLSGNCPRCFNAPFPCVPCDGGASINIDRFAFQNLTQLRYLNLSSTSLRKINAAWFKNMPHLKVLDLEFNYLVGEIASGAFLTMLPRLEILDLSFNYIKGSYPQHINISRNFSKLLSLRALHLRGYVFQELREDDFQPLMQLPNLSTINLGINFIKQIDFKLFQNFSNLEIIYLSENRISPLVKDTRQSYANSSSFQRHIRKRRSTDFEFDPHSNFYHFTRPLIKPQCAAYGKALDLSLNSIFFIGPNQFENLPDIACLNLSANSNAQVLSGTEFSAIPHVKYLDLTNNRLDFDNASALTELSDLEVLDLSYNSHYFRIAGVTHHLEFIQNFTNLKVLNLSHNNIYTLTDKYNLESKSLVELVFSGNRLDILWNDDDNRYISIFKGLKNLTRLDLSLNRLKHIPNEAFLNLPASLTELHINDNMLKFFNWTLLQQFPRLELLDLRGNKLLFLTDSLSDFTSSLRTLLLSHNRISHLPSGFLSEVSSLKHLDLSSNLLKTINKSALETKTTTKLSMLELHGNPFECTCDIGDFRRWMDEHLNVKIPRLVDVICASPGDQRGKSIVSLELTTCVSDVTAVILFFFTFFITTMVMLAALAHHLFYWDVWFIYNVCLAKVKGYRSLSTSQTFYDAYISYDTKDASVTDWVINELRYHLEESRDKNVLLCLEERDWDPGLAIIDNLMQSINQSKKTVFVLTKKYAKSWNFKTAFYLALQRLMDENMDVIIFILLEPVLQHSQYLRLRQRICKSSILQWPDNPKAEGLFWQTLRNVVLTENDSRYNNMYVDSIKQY
# Method: as §1
Compound,IC50 (human TLR7) [nM],IC50 (human TLR9) [nM],IC50 (human TLR8) [nM]
"CC(C)N1CCN(c2ccc(-c3ccc4[nH]c(=O)c(-c5ccncc5)cc4c3)cc2)CC1 [Example 17, 6-{4-[4-(propan-2-yl)piperazin-1-yl]phenyl}-3-(pyridin-4-yl)-1,2-dihydroquinolin-2-one]",338,171,949
"CC(C)N1CCN(c2ccc(-c3ccc4[nH]c(=O)c(-c5ccccc5)cc4c3)cc2)CC1 [Example 18, 3-phenyl-6-{4-[4-(propan-2-yl)piperazin-1-yl]phenyl}-1,2-dihydroquinolin-2-one]",16700,190,16300
"CC(C)N1CCN(c2ccc(-c3ccc4[nH]c(=O)c(-c5ccc(C(=O)N6CCCC6(C)C)cc5)cc4c3)cc2)CC1 [Example 19, 3-[4-(2,2-dimethylpyrrolidine-1-carbonyl)phenyl]-6-{4-[4-(propan-2-yl)piperazin-1-yl]phenyl}-1,2-dihydroquinolin-2-one]",2400,200,≥ 50000
"CC(C)N1CCN(c2ccc(-c3ccc4[nH]c(=O)c(-c5cc(F)ccc5F)cc4c3)cc2)CC1 [Example 20, 3-(2,5-difluorophenyl)-6-{4-[4-(propan-2-vi)piperazin-1-yl]phenyl}-1,2-dihydroquinolin-2-one]",1560,203,5410
"CCCC(=O)Nc1ccc(-c2cc3cc(-c4ccc(N5CCN(C(C)C)CC5)cc4)ccc3[nH]c2=O)cc1 [Example 21, N-[4-(2-oxo-6-{4-[4-(propan-2-yl)piperazin-1-yl]phenyl}-1,2-dihydroquinolin-3-yl)phenyl]butanamide]",≥ 50000,214,≥ 50000
"CC(C)N1CCN(c2ccc(-c3ccc4[nH]c(=O)c(-c5ccc(N6CC[C@H](F)C6)cc5)cc4c3)cc2)CC1 [Example 22, 3-{4-[(3S)-3-fluoropyrrolidin-1-yl]phenyl}-6-{4-[4-(propan-2-yl)piperazin-1-yl]phenyl}-1,2-dihydroquinolin-2-one]",≥ 50000,216,≥ 50000
"CC(C)N1CCN(c2ccc(-c3ccc4c(c3)cc(-c3ccc(N(C)S(C)(=O)=O)cc3)c(=O)n4C)cc2)CC1 [Example 23, N-methyl-N-[4-(1-methyl-2-oxo-6-{4-[4-(propan-2-yl)piperazin-1-yl]phenyl}-1,2-dihydroquinolin-3-yl)phenyl]methanesulfonamide]",5510,221,36000
"CC(C)N1CCN(c2ccc(-c3ccc4[nH]c(=O)c(-c5cccc(F)c5F)cc4c3)cc2)CC1 [Example 24, 3-(2,3-difluorophenyl)-6-{4-[4-(propan-2-yl)piperazin-1-yl]phenyl}-1,2-dihydroquinolin-2-one]",2000,224,15200

# Now from value to molecule:
IC50 (human TLR7) [nM],IC50 (human TLR9) [nM],IC50 (human TLR8) [nM],Compound
6480,226,1390,"Cc1ccccc1-c1cc2cc(-c3ccc(N4CCN(C(C)C)CC4)cc3)ccc2[nH]c1=O [Example 25, 3-(2-methylphenyl)-6-{4-[4-(propan-2-yl)piperazin-1-yl]phenyl}-1,2-dihydroquinolin-2-one]"
1800,231,673,"CC(C)C(=O)Nc1ccc(-c2cc3cc(-c4ccc(N5CCN(C(C)C)CC5)cc4)ccc3n(C)c2=O)cc1 [Example 26, 2-methyl-N-[4-(1-methyl-2-oxo-6-{4-[4-(propan-2-yl)piperazin-1-yl]phenyl}-1,2-dihydroquinolin-3-yl)phenyl]propanamide]"
2500,233,1040,"CC(C)N1CCN(c2ccc(-c3ccc4c(c3)cc(-c3ccc(S(C)(=O)=O)cc3)c(=O)n4C)cc2)CC1 [Example 27, 3-(4-methanesulfonylphenyl)-1-methyl-6-{4-[4-(propan-2-yl)piperazin-1-yl]phenyl}-1,2-dihydroquinolin-2-one]"
≥ 50000,2280,≥ 50000,"COC(=O)c1ccc(-c2cc3cc(-c4ccc(N5CCN(C(C)C)CC5)cc4)ccc3[nH]c2=O)cc1 [Example 28, methyl 4-(2-oxo-6-{4-[4-(propan-2-yl)piperazin-1-yl]phenyl}-1,2-dihydroquinolin-3-yl)benzoate]"
